Test results as given in US9321717B2, “Process for rapid identification and preparation of crystalline forms” (Allergan, Inc., priority 2011, dated 2016).
Entries after “also recorded” stand apart in the source; their conditions may differ.

Key:
[1] = Form risk assessment (FRA) crystallization workflow with XRPD form identification; type: physicochemical; settings: for FRA_TC: forms from thermocycled slurrying; for Forms Found by FRA: model compounds, crystalline, used as received, * = low energy form; for FRA_EV: forms from evaporation
Text: However, certain basic elements of the polymorph screening experiments are incorporated, such as solubility estimation, solvent-mediated form transformation, as well as super saturation adjustment by cooling, antisolvent addition, and evaporation, etc. The following procedure outlines the logical steps of performing an FRA experiment: • 1. Determine the physicochemical properties of the starting material (compound as received) • 2. Estimate the solubilities of the compound in twenty-four solvents with diverse solvent properties. • 3. Design approximately sixteen crystallization experiments with appropriate solvent systems based on the results of the solubility estimations. • 4. Prepare the crystallization samples and examine their solubilities in the sixteen solvent systems at elevated temperature. • 5. Conduct the crystallization experiment according to the designed workflow. • 6. Characterize and analyze the materials isolated from the crystallization experiments.
The solubility of the API is visually estimated by the “dynamic method” in each of the twenty-four solvents. This method is used to quickly bin the solvents into different categories, such as good solvents, poor solvents, and intermediates. The following describes the general procedure of the solubility estimation: • 1. Place weighed amounts of drug in clear glass vials to which incremental volumes (20-500 μL) of solvent are added until the solution turns clear. • 2. Apply brief vortexing after each solvent addition. • 3. Calculate the approximate visual solubility of the drug in a solvent by recording the amount of solvent required to completely dissolve the known weight of drug. The preferred unit of solubility is mg/mL.
The suspensions of the drug substance in a variety of solvent systems will be subjected to temperature-cycled slurrying, which is the primary crystallization method. Sixteen sample slurries for thermo-cycled experiments should be prepared with caution to avoid complete dissolution of the solid at elevated temperatures. For slurry with a single solvent system, the initial composition should have approximately 5-10 times higher concentration than the estimated solubility value at ambient temperature. For slurry in a solvent mixture, a suspension of the compound in the antisolvent should first be prepared and followed by the introduction of the solvent to adjust the solubility. The final antisolvent to solvent volume ratio is typically between 3 and 10. Record the amount of compound initially added and the volumes of added solvent aliquots.
Appendix 1 summarizes the typical temperature programs for each experiment. Usually three heat-cool-heat temperature cycles are used. The initial fast thermocycling runs help preliminarily assessing the dissolution behavior of the samples. The slow thermocycling runs focus on generating crystals and increasing the crystallinity and form purity.
If the sample remains a clear solution after the initial thermocycling, the solution is cooled to induce super saturation. During cooling, the original solution may become supersaturated and further reach the metastable limit when spontaneous crystallization starts. Usually the final temperature is 5° C. and the cooling rate is 0.1° C. per minute to facilitate crystal growth.
If the sample is still a clear solution at 5° C., the sample vial will be transferred into a −20° C. freezer for at least 2-3 days. The sample should be regularly examined by visual inspection and/or polarized light microscope for signs of solid formation.
The antisolvents identified during the initial solubility estimation can be used for adjusting the solubility of the drug substance in the primary solvent. The combination of a solvent with a miscible antisolvent provides a continuous solvent space, which potentially maximizes the possibility of capturing a crystalline form. […]

[2] = model compounds; * = low energy form; cited from earlier work

FRA_TC [1]	Forms Found by FRA [1]	forms identified or generated by FRA [1]	FRA_EV [1]	FRA_AS ([1]; forms from antisolvent addition)	SMILES	Reported Forms in the Literature [2]
I, II, III, IV	I, II, III*, IV*	–	–	–	Nc1ccc(S(=O)(=O)Nc2nccs2)cc1 [Sulfathiazole]	I, II, III*, IV*, V
B, C	B*, C*	both enantiotropic polymorphs	–	–	CCCCCCCCCCCCCCCCCC(=O)O [Stearic acid (E), Stearic acid]	A, B*, C*, E
–	I*, solvate	–	–	solvate	O=C(c1ccccc1)c1ccc2n1CCC2C(=O)O (stereo not shown) [Ketorolac free acid]	I*, II, III, solvate
I, II,; also recorded: hydrate	I*, II, hydrate	–	I, II	–	CN1C(C(=O)Nc2ccccn2)=C(O)c2ccccc2S1(=O)=O [Piroxicam]	I*, II, III, hydrate
–	–	capture both forms	–	–	CCNC(=O)CCC/C=C\C[C@@H]1[C@@H](/C=C/[C@@H](O)CCc2ccccc2)[C@H](O)C[C@@H]1O [bimatoprost, Bimatoprost]	–
A, B, C	A*, B, C	–	–	–	COC(=O)Nc1nc2ccc(C(=O)c3ccccc3)cc2[nH]1 [Mebendazole]	A*, B, C

The next lines start with the molecule.

SMILES	FRA_TC [1]	Forms Found by FRA [1]	forms identified or generated by FRA [1]	FRA_EV [1]	FRA_AS ([1]; forms from antisolvent addition)	Reported Forms in the Literature [2]
NC(N)=Nc1nc(CSCCC(N)=NS(N)(=O)=O)cs1 [Famotidine]	A, C	A*, B, C; also recorded: (new form)	–	A, C	–	A*, B
NC(=O)N1c2ccccc2C=Cc2ccccc21 [Carbamazepine (E), Carbamazepine]	α, β, γ	α*, β*, γ	–	γ	–	α*, β*, γ,; also recorded: dihydrate, solvate
O=C(O)c1cc(-c2ccc(F)cc2F)ccc1O [Diflunisal]	I, II, III, IV	–	–	I, IV,; also recorded: solvate	–	–
COc1ccc2c(c1)c(CC(=O)O)c(C)n2C(=O)c1ccc(Cl)cc1 [Indomethacin]	α, β, γ	α, β, γ*	–	–	–	α, β, γ*
